We go through three molecules from US11970490B2, “Stable heavy isotopes in amide functional groups and uses thereof” (RISEN (SUZHOU) PHARMA TECH CO., LTD., priority 2020, dated 2024).

Molecules are shown by their SMILES.

Data set [1] in a line: Pharmacokinetic studies in Sprague Dawley (SD) rats, oral gavage, plasma. Format: in vivo. The following applies: for AUC(0-t) / AUC(0-inf) / Cmax / Tmax / Vd/F: Sprague-Dawley, rat; for AUC(0-t) / AUC(0-inf) / Cmax / Tmax / Vd/F / plasma concentration at 24-h timepoint / CLz/F: oral gavage; for AUC(0-t) / AUC(0-inf) / Cmax / Tmax / Vd/F / CLz/F: plasma; for Vd/F: read-out: Vz/F; for plasma concentration at 24-h timepoint: 0.322 mg/kg. The procedure:
(a) SD rats, six in a group (n=6), were grouped randomly. Compound 1 (Alpelisib-^18O1) and Alpelisib were mixed and adjusted to 1:1 molar ratio in dosing solution (1.25 mg/mL); and the dosing solution was administered to the animals, via oral gavage, at a dose level of 2.5 mg/kg. Blood samples were collected at pre-set time points following drug administration, at 0.167, 0.5, 1, 2, 3, 4, 6, 8, and 24 hours (h). The blood samples were converted to plasma samples using standard techniques, and the latter samples were analyzed to determine the concentrations of Compound 1 and Alpelisib. In FIG. 1a, lines labelled with -o- and -Δ-represent the plasma concentrations of Alpelisib-^18O1 and Alpelisib, respectively, following oral administration of the same molar dose of Alpelisib-^18O1 and Alpelisib to the animals.
(b) Similarly, Compound 1 (Alpelisib-^18O1) and Alpelisib were administered to the animals (SD rats, n=4), via oral gavage, at a low dose (dose level of 0.322 mg/kg). Blood samples were collected at pre-set time points following drug administration, at 0.167, 0.5, 1, 2, 4, 6, 8, 10 and 24 hours (h). The blood samples were converted to plasma samples using standard techniques, and the latter samples were analyzed to determine the concentrations of Compound 1 and Alpelisib. […] In FIG. 1b, solid line and dashed line represent the plasma concentrations of Alpelisib-^18O1 and Alpelisib, respectively.

Data set [2] in a line: Pharmacokinetic studies in ICR mice, oral gavage, plasma. The data set is classed as in vivo. As to conditions: 2.5 mg/kg; for AUC(0-inf) / AUC(0-t) / Cmax / Tmax / Vd/F: mouse; for AUC(0-inf) / AUC(0-t) / Cmax / Tmax / Vd/F / CLz/F: oral gavage, 1:1 molar mix, plasma; for Vd/F: read-out: Vz/F. The procedure:
ICR mice, 48, in 6 groups (n=8), were grouped randomly. Compound 1 (Alpelisib-^18O1) and Alpelisib were mixed and adjusted to 1:1 molar ratio in dosing solution (1.25 mg/mL); and the dosing solution was administered to the animals, via oral gavage, at a dose level of 2.5 mg/kg. Blood samples were collected (a group of 8 animals for each time point) at time points, after dosing, at 0.5, 1, 2, 4, 8, and 12 h. The blood samples were converted to plasma samples using standard techniques, and the latter samples were analyzed to determine the concentrations of Compound 1 and Alpelisib. In FIG. 2, lines labelled with -o- and -Δ-represent the plasma concentrations of Alpelisib-^18O1 and Alpelisib, respectively, following oral administration of the same dose of Alpelisib-^18O1 and Alpelisib to the animals.

Data set [3] can be described thus: Pharmacokinetic studies in beagle dogs, single oral dose, co-administered. The data set is classed as in vivo. The following applies: for Cmax / Tmax / half-life / AUC(0-t) / Vd/F: both sexes, dog, plasma; for Cmax / Tmax / half-life / AUC(0-t) / Vd/F / CLz/F: single oral dose 2.5 mg/kg each; for Cmax / Tmax / half-life / Vd/F / CLz/F: co-administered; for AUC(0-t): co-administered (total 5 mg/kg); for Vd/F: read-out: Vz/F. The protocol: Male and female beagle dogs (n=4; 2 males and 2 females) were used in the study. A single oral dose of Alpelisib (2.5 mg/kg) and Compound 1 (^18O1-Alpelisib) (2.5 mg/kg) were co-administered (at a total dose of 5 mg/kg) in DMSO and 0.5% carboxymethyl cellulose sodium (CMC-Na) aqueous solution (5:95, v/v). Blood samples were collected for analysis of Alpelisib and ^18O1-Alpelisib at 0.25, 0.5, 1, 1.5, 2, 3, 4, 6, 8, 10, 12 and 24 h. In FIG. 4, lines labelled with -o- and -Δ- represent the plasma concentrations of Alpelisib-^18O1 and Alpelisib, respectively, following oral administration of the same dose of Alpelisib-^18O1 and Alpelisib to the animals.

For data set [4] the following is noted: James, A. et al., 2015; cited from earlier work.
Data set [5] is described as follows: M4 and M4-18O1 production in monkey liver S9. The data set is classed as in vitro ADME. The following applies: monkey liver S9, 37° C., β-NADPH, 0-240 min, equal molar co-incubation. The protocol:
(§1) Stock solution (50 μL) containing equal molar concentration of Alpelisib and Alpelisib-^18O1 was diluted with pre-warmed (37° C., water bath) 0.1 M Tris-Acetate buffer; and the concentration of each compound in this working solution was 4.5 μM. In each incubation well were added the above working solution (50 μL) and a liver S9 solution (50 μL), mixed well. The sample was pre-incubated for 5 min, following by addition, to each well, of β-NADPH dosing solution (100 μL). The sample plate was incubated at 37° C., and analyzed at time points of 0, 15, 30, 60, and 240 min., in triplicates. Sample analysis: at a pre-set time-point, a stop solution (800 μL, acetonitrile) was added to each well; the sample was well-mixed (Vortex), and centrifuged at 12000 rpm for 5 minutes; the supernatant was transferred to analytical sample vial, and then analyzed with LC-MS/MS, for M4 and M4-^18O1. […] Liver S9 used in the experiment: (a) monkey liver S9, (b) pooled human S9, (c) mini pig liver S9, and (d) male Wistar rat Liver S9.

The nature of data set [6]: M4 and M4-18O1 production in pooled human S9. Format: in vitro ADME. The following applies: pooled human S9, 37° C., β-NADPH, 0-240 min, equal molar co-incubation. The protocol:
as §1

The nature of data set [7]: M4 and M4-18O1 production in mini pig liver S9. The data set is classed as in vitro ADME. The following applies: mini pig liver S9, 37° C., β-NADPH, 0-240 min, equal molar co-incubation. The protocol: as §1
The nature of data set [8]: M4 and M4-18O1 production in male Wistar rat liver S9. Format: in vitro ADME. The following applies: male Wistar rat liver S9, 37° C., β-NADPH, 0-240 min, equal molar co-incubation. The protocol:
as §1

[9] abbreviates: dose 2.5 mg/kg, 1:1 molar mix of Compound 1 and Alpelisib.

In turn, `Cc1nc(NC(=O)N2CCC[C@H]2C(N)=O)sc1-c1ccnc(C(C)(C)C(F)(F)F)c1` [Alpelisib, N-(4-methyl-5-(2-(2,2,2-trifluoro-1,1-dimethylethyl)-4-pyridinyl)-2-thiazolyl)aminocarbonyl-L-prolinamide, reference compound] displayed an AUC(0-t) in data set [1] (setting [9]) of 26400 ng·h/mL. In addition, in data set [1] (dose 2.5 mg/kg, 1:1 molar mix), the area under the curve AUC(0-inf) worked out at 26500 ng·h/mL, the Cmax worked out at 2300 ng/mL, the time to peak (Tmax) is 3 h and the Vd/F was 1.8 L/kg. Further, the CLz/F in data set [1] (dose 2.5 mg/kg, 1:1 molar mix) was 7.87 mL/min/kg. Further, in data set [1] (low dose 0.322 mg/kg), the total exposure AUC(0-inf) was 80.3 ng·h/mL, the exposure AUC(0-t) came to 75.2 ng·h/mL, the highest level (Cmax) was 28.1 ng/mL and the time to peak (Tmax) was 0.625 h. In addition, in data set [1] (low dose 0.322 mg/kg), the Vd/F stood at 13.1 L/kg and the CLz/F turned out to be 68.3 mL/min/kg. In data set [1], the “plasma concentration at 24-h timepoint” value is “below the limit of quantification”. In addition, in data set [2], the total exposure AUC(0-inf) amounted to 30600 ng·h/mL, the AUC(0-t) was 26200 ng·h/mL, the Cmax amounted to 4210 ng/mL and the Tmax stood at 2 h. For the same molecule, in data set [2], the Vd/F was 2.37 L/kg and the CLz/F is 6.82 mL/min/kg. In data set [3], the Cmax is 931 ng/mL, the time of peak concentration (Tmax) stood at 1.2 h, the half-life is 5.4 h and the area under the curve AUC(0-t) was found to be 6120 ng·h/mL. In data set [3], the Vd/F was found to be 3 L/kg and the CLz/F came to 6.83 mL/min/kg.

On to `Cc1nc(NC(=O)N2CCC[C@H]2C(=O)O)sc1-c1ccnc(C(C)(C)C(F)(F)F)c1` [Compound M4], for which the “biological activity of the acid metabolite” value in data set [4] is “biologically inactive”.

With `Cc1nc(NC(=O)N2CCC[C@H]2C(N)=[18O])sc1-c1ccnc(C(C)(C)C(F)(F)F)c1` [Compound 1, N-(4-methyl-5-(2-(2,2,2-trifluoro-1,1-dimethylethyl)-4-pyridinyl)-2-thiazolyl)aminocarbonyl-L-prolin-^18O-amide], the AUC(0-t) in data set [1] (setting [9]) amounted to 28700 ng·h/mL; in data set [1] (low dose 0.322 mg/kg), 118 ng·h/mL; in data set [2], 27800 ng·h/mL; in data set [3] it was 6680 ng·h/mL. The AUC(0-inf) is 28800 ng·h/mL in data set [1] (dose 2.5 mg/kg, 1:1 molar mix); 132 ng·h/mL in data set [1] (low dose 0.322 mg/kg); 32600 ng·h/mL in data set [2]. Moreover, the maximum concentration (Cmax) in data set [1] (dose 2.5 mg/kg, 1:1 molar mix) is 2390 ng/mL; in data set [1] (low dose 0.322 mg/kg), 32.6 ng/mL; in data set [2] it was 4520 ng/mL; in data set [3], 1470 ng/mL. Besides, the time to peak (Tmax) in data set [1] (dose 2.5 mg/kg, 1:1 molar mix) was found to be 3 h; in data set [1] (low dose 0.322 mg/kg), 0.875 h; in data set [2] it was 2 h; in data set [3], 1.1 h. For the same molecule, the Vd/F was found to be 1.66 L/kg in data set [1] (dose 2.5 mg/kg, 1:1 molar mix); 11.4 L/kg in data set [1] (low dose 0.322 mg/kg); 2.24 L/kg in data set [2]; 2.4 L/kg in data set [3]. The “plasma concentration at 24-h timepoint” value in data set [1] was “below the limit of quantification”. Further, the CLz/F came out at 7.23 mL/min/kg in data set [1] (dose 2.5 mg/kg, 1:1 molar mix); 41.7 mL/min/kg in data set [1] (low dose 0.322 mg/kg); 6.4 mL/min/kg in data set [2]; 6.33 mL/min/kg in data set [3]. The “plasma concentration compared with Alpelisib” value in data set [1] (oral, both doses tested (2.5 and 0.322 mg/kg), greatest effect at low dose) was “higher”; in data set [2] (oral), “higher”; in data set [3] (oral, 2.5 mg/kg each), “higher”. Further, the half-life in data set [3] was 4.5 h. Further, the “metabolism compared to Alpelisib (M4-18O1 versus M4 production)” value in data set [5], in data set [6], in data set [7] and in data set [8] was “reduced” each time.

As a reminder, the AUC(0-t) is exposure summed from dosing to a finite time, without extrapolation to infinity. For orientation: AUC(0-inf) means total exposure, with the tail of the curve extrapolated. Usually Cmax stands for the highest concentration seen after dosing. A word on the Tmax: it is the time from dosing to the highest level. A word on the half-life: it is the time in which the quantity being followed falls by half.
